Results as given in the supplement of paper PMC4314810.
± gives the standard deviation of the averaged measurements.

Tested on: MCF7
Test: HRG-induced Akt activation (dPAkt = log2 pAkt/Akt HRG-stimulated minus log2 pAkt/Akt basal) (log2 ratio difference); higher = stronger HRG-induced Akt(T308) phosphorylation
Conditions: miRNA mimic concentration 10 nM; time after transfection 72 h; heregulin 10 ng/ml; stimulation time 1 h
Outline: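 Akt activation induced by heregulin was calculated as the difference between stimulated and unstimulated log ratios of phospho-Akt to total Akt, then averaged across replicates. The ratio was taken as log2(pAkt/Akt) from In-Cell Western readings of phospho-Akt(T308) and total Akt on an Odyssey, corrected for column-wise fixation decay. Before reading, MCF7 cells ([…], 96-well plates) transfected with 879 miRNA mimics at 10 nM final via Lipofectamine RNAiMax were, after 72 h, given 10 ng/ml heregulin-beta1 for 1 h or no stimulus, then fixed with 4% PFA. Two biological replicates were run.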

Sequence	HRG-induced Akt activation (log2)
CAAAAACCACAGUUUCUUUUGC	0.997 ± 0.23
CAAAAAUCUCAAUUACUUUUGC	2.04 ± 0.028
CAAAACGUGAGGCGCUGCUAU	1.27 ± 0.087
CAAAACUGGCAAUUACUUUUGC	1.5 ± 0.052
CAAAAGUAAUUGUGGAUUUUGU	1.5 ± 0.065
CAAACCACACUGUGGUGUUAGA	1.09 ± 0.76
CAAAGAAUUCUCCUUUUGGGCU	1.74 ± 0.013
CAAAGAGGAAGGUCCCAUUAC	2.01 ± 0.3
CAAAGCGCUCCCCUUUAGAGGU	1.02 ± 0.045
CAAAGCGCUUCCCUUUGGAGC	1.259 ± 0.0069
CAAAGCGCUUCUCUUUAGAGUGU	0.7 ± 0.83
CAAAGGUAUUUGUGGUUUUUG	1.74 ± 0.066
CAAAGUGCCUCCCUUUAGAGUG	0.831 ± 0.84
CAAAGUGCUCAUAGUGCAGGUAG	1.34 ± 0.39
CAAAGUGCUGUUCGUGCAGGUAG	1.46 ± 0.35
CAAAGUGCUUACAGUGCAGGUAG	1.23 ± 0.17
CAAAGUUUAAGAUCCUUGAAGU	1.08 ± 0.53
CAAAUUCGUAUCUAGGGGAAUA	1.57 ± 0.036
CAACAAAUCACAGUCUGCCAUA	1.2 ± 0.27
CAACAAAUCCCAGUCUACCUAA	1.51 ± 0.076

Sequence	HRG-induced Akt activation (log2)
CAACACCAGUCGAUGGGCUGU	1.34 ± 0.34
CAACCUGGAGGACUCCAUGCUG	0.949 ± 0.19
CAACGGAAUCCCAAAAGCAGCUG	1.51 ± 0.045
CAACUAGACUGUGAGCUUCUAG	2.04 ± 0.049
CAAGAACCUCAGUUGCUUUUGU	1.15 ± 0.34
CAAGCUCGCUUCUAUGGGUCUG	1.18 ± 0.12
CAAGCUCGUGUCUGUGGGUCCG	0.995 ± 0.35
CAAGCUUGUAUCUAUAGGUAUG	1.59 ± 0.17
CAAGUCACUAGUGGUUCCGUU	1.49 ± 0.5
CAAGUCUUAUUUGAGCACCUGUU	1.94 ± 0.12
CAAUCACUAACUCCACUGCCAU	1.69 ± 0.37
CAAUCAGCAAGUAUACUGCCCU	1.93 ± 0.24
CAAUGUUUCCACAGUGCAUCAC	1.1 ± 0.42
CAAUUUAGUGUGUGUGAUAUUU	2 ± 0.13
CACAAGGUAUUGGUAUUACCU	1.79 ± 0.25
CACACACUGCAAUUACUUUUGC	1.53 ± 0.053
CACAUUACACGGUCGACCUCU	1.173 ± 0.0052
CACCAGGCAUUGUGGUCUCC	2.13 ± 0.28
CACCCGGCUGUGUGCACAUGUGC	1.53 ± 0.48
CACCCGUAGAACCGACCUUGCG	1.4 ± 0.22

Sequence	HRG-induced Akt activation (log2)
CACGCUCAUGCACACACCCACA	1.68 ± 0.14
CACUAGAUUGUGAGCUCCUGGA	1.69 ± 0.57
CACUCAGCCUUGAGGGCACUUUC	0.664 ± 0.32
CACUGGCUCCUUUCUGGGUAGA	2.02 ± 0.43
CACUGUAGGUGAUGGUGAGAGUGGGCA	1.51 ± 0.23
CACUGUGUCCUUUCUGCGUAG	1.86 ± 0.19
CAGCAGCAAUUCAUGUUUUGAA	1.53 ± 0.33
CAGCAGCACACUGUGGUUUGU	1.54 ± 0.46
CAGCCACAACUACCCUGCCACU	1.94 ± 0.99
CAGGAUGUGGUCAAGUGUUGUU	1.41 ± 0.093
CAGGCCAUAUUGUGCUGCCUCA	1.88 ± 0.66
CAGGGAGGUGAAUGUGAU	1.71 ± 0.099
CAGGUCGUCUUGCAGGGCUUCU	1.44 ± 0.68
CAGUAACAAAGAUUCAUCCUUGU	2.1 ± 0.17
CAGUGCAAUAGUAUUGUCAAAGC	1.02 ± 0.51
CAGUGCAAUGAUAUUGUCAAAGC	1.07 ± 0.53
CAGUGCAAUGAUGAAAGGGCAU	1.31 ± 0.024
CAGUGCAAUGUUAAAAGGGCAU	0.895 ± 0.16
CAGUGCCUCGGCAGUGCAGCCC	1.45 ± 0.064
